Assay results taken from PubChem BioAssay (NCI).
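Abbreviation: GI50, concentration required for 50% inhibition of growth. TGI marks complete inhibition of growth.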

Experiments:
Assay in all cases: NCI tumour cell line growth inhibition, 384-well format
[1] = tested on: MALME-3M melanoma
[2] = tested on: RPMI-8226 leukemia
[3] = tested on: MDA-MB-231 breast
[4] = tested on: HCT-15 colon
[5] = tested on: A498 renal
[6] = tested on: HT29 colon
[7] = tested on: OVCAR-4 ovarian
[8] = tested on: RXF 393 renal
[9] = tested on: LOX IMVI melanoma
[10] = tested on: SN12C renal
[11] = tested on: A549 NSCLC
[12] = tested on: DU-145 prostate
[13] = tested on: COLO 205 colon
[14] = tested on: SNB-19 CNS
[15] = tested on: UACC-257 melanoma
[16] = tested on: SNB-75 CNS
[17] = tested on: HL-60(TB) leukemia
[18] = tested on: OVCAR-3 ovarian
[19] = tested on: 786-0 renal
[20] = tested on: M14 melanoma
[21] = tested on: NCI-H460 NSCLC
[22] = tested on: NCI-H226 lung
[23] = tested on: HCC-2998 colon
[24] = tested on: MOLT-4 leukemia
[25] = tested on: EKVX NSCLC
[26] = tested on: HS 578T breast
[27] = tested on: SR leukemia
[28] = tested on: BT-549 breast
[29] = tested on: TK-10 renal
[30] = tested on: PC-3 prostate
[31] = tested on: SK-MEL-5 melanoma
[32] = tested on: SF-295 CNS
[33] = tested on: SW-620 colon
[34] = tested on: UACC-62 melanoma
[35] = tested on: IGROV1 ovarian
[36] = tested on: HOP-92 NSCLC
[37] = tested on: ACHN renal
[38] = tested on: K-562 leukemia
[39] = tested on: KM12 colon
[40] = tested on: NCI/ADR-RES ovarian
[41] = tested on: NCI-H322M lung
[42] = tested on: SK-OV-3 ovarian
[43] = tested on: NCI-H23 lung
[44] = tested on: SF-539 CNS
[45] = tested on: MDA-MB-435 melanoma
[46] = tested on: MDA-MB-468 breast
[47] = tested on: CCRF-CEM leukemia
[48] = tested on: CAKI-1 renal
[49] = tested on: SF-268 CNS
[50] = tested on: MCF7 breast
[51] = tested on: NCI-H522 lung
[52] = tested on: HOP-62 NSCLC
[53] = tested on: OVCAR-8 ovarian
[54] = tested on: SK-MEL-28 melanoma
[55] = tested on: UO-31 renal
[56] = tested on: OVCAR-5 ovarian
[57] = tested on: T-47D breast

Q: How did the GI50 [1] turn out when `CN1C(=O)C(C)(C)Oc2c(-c3cn(C)c(=O)c4[nH]ccc34)cc(S(C)(=O)=O)cc21` was run?
A: 115 nM

Q: And the TGI [1]?
A: 731 nM

Q: And the GI50 [2]?
A: 23.4 nM

Q: What about the TGI [2] of the same compound?
A: 152 nM

Q: What about the GI50 [3] of the same compound?
A: 168 nM

Q: And the TGI [3]?
A: 2260 nM

Q: What about the GI50 [4] of the same compound?
A: 340 nM

Q: What about the TGI [4] of the same compound?
A: 2270 nM

Q: What about the GI50 [5] of the same compound?
A: 381 nM

Q: And the TGI [5]?
A: 11500 nM

Q: And the GI50 [6]?
A: 196 nM

Q: What about the TGI [6] of the same compound?
A: 7840 nM

Q: And the GI50 [7]?
A: 114 nM

Q: And the TGI [7]?
A: 346 nM

Q: And the GI50 [8]?
A: 1730 nM

Q: And the TGI [8]?
A: 10700 nM

Q: What about the GI50 [9] of the same compound?
A: 157 nM

Q: What about the TGI [9] of the same compound?
A: 327 nM

Q: And the GI50 [10]?
A: 669 nM

Q: And the TGI [10]?
A: 3550 nM

Q: And the GI50 [11]?
A: 389 nM

Q: What about the TGI [11] of the same compound?
A: 7080 nM

Q: What about the GI50 [12] of the same compound?
A: 1290 nM

Q: What about the TGI [12] of the same compound?
A: 22900 nM

Q: What about the GI50 [13] of the same compound?
A: 228 nM

Q: What about the TGI [13] of the same compound?
A: 1390 nM

Q: And the GI50 [14]?
A: 423 nM

Q: What about the TGI [14] of the same compound?
A: 7130 nM

Q: What about the GI50 [15] of the same compound?
A: 206 nM

Q: What about the TGI [15] of the same compound?
A: 1330 nM

Q: What about the GI50 [16] of the same compound?
A: 343 nM

Q: What about the TGI [16] of the same compound?
A: 7570 nM

Q: And the GI50 [17]?
A: 48.5 nM

Q: And the TGI [17]?
A: 184 nM

Q: And the GI50 [18]?
A: 232 nM

Q: What about the TGI [18] of the same compound?
A: 1180 nM

Q: And the GI50 [19]?
A: 355 nM

Q: What about the TGI [19] of the same compound?
A: 7360 nM

Q: And the GI50 [20]?
A: 364 nM

Q: What about the TGI [20] of the same compound?
A: 16300 nM

Q: What about the GI50 [21] of the same compound?
A: 1160 nM

Q: And the TGI [21]?
A: 10400 nM

Q: What about the GI50 [22] of the same compound?
A: 223 nM

Q: What about the TGI [22] of the same compound?
A: 1710 nM

Q: And the GI50 [23]?
A: 150 nM

Q: And the TGI [23]?
A: 468 nM

Q: And the GI50 [24]?
A: 220 nM

Q: And the TGI [24]?
A: 1010 nM

Q: And the GI50 [25]?
A: 1510 nM

Q: And the TGI [25]?
A: 11100 nM

Q: What about the GI50 [26] of the same compound?
A: 65.2 nM

Q: And the TGI [26]?
A: 349 nM

Q: And the GI50 [27]?
A: 72.8 nM

Q: And the TGI [27]?
A: 531 nM

Q: What about the GI50 [28] of the same compound?
A: 164 nM

Q: What about the TGI [28] of the same compound?
A: 785 nM

Q: And the GI50 [29]?
A: 279 nM

Q: And the TGI [29]?
A: 1170 nM

Q: And the GI50 [30]?
A: 1040 nM

Q: What about the TGI [30] of the same compound?
A: 50700 nM

Q: What about the GI50 [31] of the same compound?
A: 178 nM

Q: What about the TGI [31] of the same compound?
A: 1140 nM

Q: What about the GI50 [32] of the same compound?
A: 1050 nM

Q: What about the TGI [32] of the same compound?
A: 7540 nM

Q: And the GI50 [33]?
A: 1280 nM

Q: What about the TGI [33] of the same compound?
A: 5610 nM

Q: What about the GI50 [34] of the same compound?
A: 68.7 nM

Q: And the TGI [34]?
A: 891 nM

Q: And the GI50 [35]?
A: 329 nM

Q: And the TGI [35]?
A: 1390 nM

Q: And the GI50 [36]?
A: 149 nM

Q: And the TGI [36]?
A: 1850 nM

Q: And the GI50 [37]?
A: 1480 nM

Q: And the TGI [37]?
A: 11000 nM

Q: What about the GI50 [38] of the same compound?
A: 268 nM

Q: And the TGI [38]?
A: 5650 nM

Q: And the GI50 [39]?
A: 330 nM

Q: What about the TGI [39] of the same compound?
A: 1910 nM

Q: What about the GI50 [40] of the same compound?
A: 5650 nM

Q: What about the TGI [40] of the same compound?
A: 45900 nM

Q: And the GI50 [41]?
A: 441 nM

Q: What about the TGI [41] of the same compound?
A: 3900 nM

Q: And the GI50 [42]?
A: 237 nM

Q: What about the TGI [42] of the same compound?
A: 1560 nM

Q: What about the GI50 [43] of the same compound?
A: 257 nM

Q: And the TGI [43]?
A: 1570 nM

Q: What about the GI50 [44] of the same compound?
A: 274 nM

Q: And the TGI [44]?
A: 1050 nM

Q: What about the GI50 [45] of the same compound?
A: 868 nM

Q: What about the TGI [45] of the same compound?
A: 12700 nM

Q: And the GI50 [46]?
A: 114 nM

Q: What about the TGI [46] of the same compound?
A: 439 nM

Q: And the GI50 [47]?
A: 174 nM

Q: And the TGI [47]?
A: 1390 nM

Q: And the GI50 [48]?
A: 229 nM

Q: And the TGI [48]?
A: 2150 nM

Q: And the GI50 [49]?
A: 728 nM

Q: And the TGI [49]?
A: 3490 nM

Q: And the GI50 [50]?
A: 84.7 nM

Q: And the TGI [50]?
A: 949 nM

Q: And the GI50 [51]?
A: 135 nM

Q: What about the TGI [51] of the same compound?
A: 544 nM

Q: What about the GI50 [52] of the same compound?
A: 287 nM

Q: And the TGI [52]?
A: 2270 nM

Q: What about the GI50 [53] of the same compound?
A: 235 nM

Q: What about the TGI [53] of the same compound?
A: 1190 nM

Q: And the GI50 [54]?
A: 347 nM

Q: And the TGI [54]?
A: 4210 nM

Q: And the GI50 [55]?
A: 2560 nM

Q: What about the TGI [55] of the same compound?
A: > 100000 nM

Q: And the GI50 [56]?
A: 271 nM

Q: What about the TGI [56] of the same compound?
A: 2240 nM

Q: What about the GI50 [57] of the same compound?
A: 156 nM

Q: And the TGI [57]?
A: 865 nM
